Like-named read-outs stand apart in the source and are kept apart here.
Assays:
EGFR = EGFR (Homo sapiens, UniProt P00533); assay: Biochemical EGFR assay (ELISA); parameters: A431 cell lysate; endogenous in cells; host or cells: A431
Description: This assay measures the in vitro kinase activity of EGFR using ELISA.
1. Coat Coming 96 well ELISA plates with 0.5 μg SUMOl in 100 μL PBS per well, store overnight at 4° C.
5. Dilute lysate in PBS (7 μg lysate/100 μL PBS).
(§1) 6. Add 100 μL of diluted lysate to each well. Shake at room temperature for 60 min.
8. Add 120 μL TBS to ELISA plate containing captured EGFR.
9. Dilute test compound 1:10 in TBS in 96-well polypropylene plates (ie. 10 μL compound+90 μL TBS).
10. Add 13.5 μL diluted test compound to ELISA plate.
13. After 5 minutes, stop reaction by adding 16.5 μL of 200 mM EDTA (pH 8.0) to each well, shaking continuously. After the EDTA has been added, shake for 1 mm.
(§2) 15. Add 100 μL anti-phosphotyrosine (1:3000 dilution in TBST) per well. Incubate 30-45 min. at room temperature, with shaking.
(§3) 17. Add 100 μL Biosource Goat anti-rabbit IgG peroxidase conjugate (1:2000 dilution in TBST) to each well. Incubate 30 min. at room temperature, with shaking.
(§4) 19. Add 100 μL of ABTS/H2O2 solution to each well.
22. Read assay on Dynatech MR7000 ELISA reader. Test Filter: 410 nM Reference Filter: 630 Nm.

PDGFR = PDGFR (Homo sapiens, UniProt P09619); assay: Biochemical PDGFR assay (ELISA); parameters: expressed in transfected cells; host or cells: NIH 3T3
PDGFR, sequence (P09619 33-1106): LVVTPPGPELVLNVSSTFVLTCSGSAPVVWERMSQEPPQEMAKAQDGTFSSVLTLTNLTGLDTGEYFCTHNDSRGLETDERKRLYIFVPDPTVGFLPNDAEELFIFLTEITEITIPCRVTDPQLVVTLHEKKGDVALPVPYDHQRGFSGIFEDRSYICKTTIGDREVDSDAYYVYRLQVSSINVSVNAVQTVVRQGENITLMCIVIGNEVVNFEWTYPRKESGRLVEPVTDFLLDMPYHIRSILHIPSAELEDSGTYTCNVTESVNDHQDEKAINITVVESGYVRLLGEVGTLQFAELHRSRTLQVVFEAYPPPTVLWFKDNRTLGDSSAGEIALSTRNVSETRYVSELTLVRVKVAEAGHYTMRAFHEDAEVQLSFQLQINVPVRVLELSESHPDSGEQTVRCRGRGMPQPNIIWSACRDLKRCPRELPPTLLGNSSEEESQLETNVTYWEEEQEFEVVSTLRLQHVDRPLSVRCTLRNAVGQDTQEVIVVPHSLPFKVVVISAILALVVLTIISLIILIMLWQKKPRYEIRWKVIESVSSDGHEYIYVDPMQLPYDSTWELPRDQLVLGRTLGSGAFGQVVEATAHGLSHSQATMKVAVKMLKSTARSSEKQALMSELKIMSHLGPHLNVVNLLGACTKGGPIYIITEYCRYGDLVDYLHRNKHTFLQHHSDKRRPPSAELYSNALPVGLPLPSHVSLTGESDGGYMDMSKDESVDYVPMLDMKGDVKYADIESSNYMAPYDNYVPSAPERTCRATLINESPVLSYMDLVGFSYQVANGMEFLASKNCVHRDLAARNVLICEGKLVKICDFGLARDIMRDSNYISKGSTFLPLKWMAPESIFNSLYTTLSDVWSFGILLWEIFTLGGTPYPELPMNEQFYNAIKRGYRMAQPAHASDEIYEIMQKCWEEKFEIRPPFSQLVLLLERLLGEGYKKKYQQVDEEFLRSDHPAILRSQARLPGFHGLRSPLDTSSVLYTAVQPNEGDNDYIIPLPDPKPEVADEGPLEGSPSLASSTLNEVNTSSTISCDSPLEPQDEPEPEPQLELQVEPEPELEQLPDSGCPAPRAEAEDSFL
Description: This assay measures the in vitro kinase activity of PDGFR using ELISA.
6. PDGFR-β expressing NlH 3T3 cell lysate.
1. Coat Corning 96 well ELISA plates with 0.5 μg 28D4C10 in 100 μL PBS per well, store overnight at 4° C.
5. Dilute lysate in HNTG (10 μg lysate/100 μL HNTG)
as §1
8. Add 80 μL working kinase buffer mix to ELISA plate containing captured PDGFR.
9. Dilute test compound 1:10 in TBS in 96-well polypropylene plates (i.e., 10 μL compound+90 μL TBS).
10. Add 10 μL diluted test compound to ELISA plate.
11. Incubate for 30 minutes while shaking at room temperature.
12. Add 10 μL ATP directly to all wells except negative control well (final well volume should be approximately 100 μL with 20 μM ATP in each well.) Incubate 30 minutes while shaking.
13. After 30 minutes, stop reaction by adding 10 μL of 200 mM EDTA (pH 8.0) to each well.
as §2, §3, §4
22. Read assay on Dynatech MR7000 ELISA reader: test filter: 410 nM, reference filter: 630 nM.

Her2 = biological target: T1, Her2 (Homo sapiens, UniProt P04626); assay: HER-2 ELISA: EGF receptor-HER2 chimeric receptor assay in whole cells (HER2 kinase); format: cell-based; details: NIH3T3 cells with EGFR/HER2 chimeric receptor, phosphotyrosine ELISA
T1 construct: fused on or other part: P00533 (Epidermal growth factor receptor)
T1 sequence (P04626 676-1255 limits assumed): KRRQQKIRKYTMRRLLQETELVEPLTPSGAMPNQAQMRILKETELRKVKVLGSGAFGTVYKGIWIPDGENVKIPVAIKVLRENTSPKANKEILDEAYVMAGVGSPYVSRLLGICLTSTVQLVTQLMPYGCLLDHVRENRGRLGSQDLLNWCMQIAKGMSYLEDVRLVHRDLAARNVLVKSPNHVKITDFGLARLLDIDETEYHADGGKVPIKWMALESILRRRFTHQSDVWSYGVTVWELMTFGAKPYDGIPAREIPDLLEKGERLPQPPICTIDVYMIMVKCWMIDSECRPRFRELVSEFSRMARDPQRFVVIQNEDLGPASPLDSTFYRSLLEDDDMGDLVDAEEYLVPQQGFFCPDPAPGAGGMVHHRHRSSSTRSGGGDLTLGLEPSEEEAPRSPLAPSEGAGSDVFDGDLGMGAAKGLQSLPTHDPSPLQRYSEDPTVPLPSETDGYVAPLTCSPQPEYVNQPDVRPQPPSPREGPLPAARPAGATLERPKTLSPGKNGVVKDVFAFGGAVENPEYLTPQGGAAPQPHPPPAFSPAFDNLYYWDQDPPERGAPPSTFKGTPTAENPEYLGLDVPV
Description: Assay 1: EGF Receptor-HER2 Chimeric Receptor Assay In Whole Cells.
HER2 kinase activity in whole EGFR-NIH3T3 cells was measured as described below:
1. An NIH3T3 cell line overexpressing a chimeric receptor containing the EGFR extracellular domain and intracellular HER2 kinase domain can be used for this assay.
3. Resuspend cells in seeding medium (DMEM, 0.5% bovine serum), and count the cells using trypan blue. Viability above 90% is acceptable. Seed cells in DMEM medium (0.5% bovine serum) at a density of 10,000 cells per well, 100 μL per well, in a 96 well microtiter plate. Incubate seeded cells in 5% CO2 at 37° C. for about 40 hours.
1. Check seeded cells for contamination using an inverted microscope. Dilute drug stock (10 mg/mL in DMSO) 1:10 in DMEM medium, then transfer 5 μL to a TBST well for a final drug dilution of 1:200 and a final DMSO concentration of 1%. Control wells receive DMSO alone. Incubate in 5% CO2 at 37° C. for two hours.
2. Prepare EGF ligand: dilute stock EGF in DMEM so that upon transfer of 10 μL dilute EGF (1:12 dilution), 100 nM final concentration is attained.
4. After 120 minutes incubation with drug, add prepared […] ligand to cells, 10 μL per well, to a final concentration of 100 nM. Control wells receive DMEM alone. Incubate, shaking, at room temperature, for 5 minutes.
5. Remove drug, EGF, and DMEM. Wash cells twice with PBS. Transfer HNTG* to cells, 100 μL per well. Place on ice for 5 minutes. Meanwhile, remove blocking buffer from other ELISA plate and wash with TBST as described above.
6. With a pipette tip securely fitted to a micropipettor, scrape cells from plate and homogenize cell material by repeatedly aspirating and dispensing the HNTG* lysis buffer. Transfer lysate to a coated, blocked, and washed ELISA plate. Incubate shaking at room temperature for one hour.
7. Remove lysate and wash 4 times with TBST. Transfer freshly diluted anti-Ptyr antibody to ELISA plate at 100 μL per well. Incubate shaking at room temperature for 30 minutes in the presence of the anti-Ptyr antiserum (1:3000 dilution in TBST).
8. Remove the anti-Ptyr antibody and wash 4 times with TBST. Transfer the freshly diluted TAGO anti-rabbit IgG antibody to the ELISA plate at 100 μL per well. Incubate shaking at room temperature for 30 minutes (anti-rabbit IgG antibody: 1:3000 dilution in TBST).
9. Remove TAGO detection antibody and wash 4 times with TBST. Transfer freshly prepared ABTS/H2O2 solution to ELISA plate, 100 μL per well. Incubate shaking at room temperature for 20 minutes. (ABTS/H2O2 solution: 1.0 μL 30% H2O2 in 10 mL ABTS stock).
10. Stop reaction by adding 50 μL 5N H2SO4 (optional), and determine O.D. at 410 nm.
11. The maximal phosphotyrosine signal is determined by subtracting the value of the negative controls from the positive controls. The percent inhibition of phosphotyrosine content for extract-containing wells is then calculated, after subtraction of the negative controls.

[1] = Table 5, in vitro kinase activity, read-out: EGFr biochem IC50
[2] = Table 5, in vitro kinase activity, read-out: PDGFr biochem IC50
[3] = Table 4, in vitro kinase activity, read-out: bio EGFr IC50
[4] = Table 4, in vitro kinase activity, read-out: bio PDGFr IC50
[5] = Table 7, in vitro kinase activity, read-out: EGFr biochem IC50

EGFR, sequence (P00533 25-1210): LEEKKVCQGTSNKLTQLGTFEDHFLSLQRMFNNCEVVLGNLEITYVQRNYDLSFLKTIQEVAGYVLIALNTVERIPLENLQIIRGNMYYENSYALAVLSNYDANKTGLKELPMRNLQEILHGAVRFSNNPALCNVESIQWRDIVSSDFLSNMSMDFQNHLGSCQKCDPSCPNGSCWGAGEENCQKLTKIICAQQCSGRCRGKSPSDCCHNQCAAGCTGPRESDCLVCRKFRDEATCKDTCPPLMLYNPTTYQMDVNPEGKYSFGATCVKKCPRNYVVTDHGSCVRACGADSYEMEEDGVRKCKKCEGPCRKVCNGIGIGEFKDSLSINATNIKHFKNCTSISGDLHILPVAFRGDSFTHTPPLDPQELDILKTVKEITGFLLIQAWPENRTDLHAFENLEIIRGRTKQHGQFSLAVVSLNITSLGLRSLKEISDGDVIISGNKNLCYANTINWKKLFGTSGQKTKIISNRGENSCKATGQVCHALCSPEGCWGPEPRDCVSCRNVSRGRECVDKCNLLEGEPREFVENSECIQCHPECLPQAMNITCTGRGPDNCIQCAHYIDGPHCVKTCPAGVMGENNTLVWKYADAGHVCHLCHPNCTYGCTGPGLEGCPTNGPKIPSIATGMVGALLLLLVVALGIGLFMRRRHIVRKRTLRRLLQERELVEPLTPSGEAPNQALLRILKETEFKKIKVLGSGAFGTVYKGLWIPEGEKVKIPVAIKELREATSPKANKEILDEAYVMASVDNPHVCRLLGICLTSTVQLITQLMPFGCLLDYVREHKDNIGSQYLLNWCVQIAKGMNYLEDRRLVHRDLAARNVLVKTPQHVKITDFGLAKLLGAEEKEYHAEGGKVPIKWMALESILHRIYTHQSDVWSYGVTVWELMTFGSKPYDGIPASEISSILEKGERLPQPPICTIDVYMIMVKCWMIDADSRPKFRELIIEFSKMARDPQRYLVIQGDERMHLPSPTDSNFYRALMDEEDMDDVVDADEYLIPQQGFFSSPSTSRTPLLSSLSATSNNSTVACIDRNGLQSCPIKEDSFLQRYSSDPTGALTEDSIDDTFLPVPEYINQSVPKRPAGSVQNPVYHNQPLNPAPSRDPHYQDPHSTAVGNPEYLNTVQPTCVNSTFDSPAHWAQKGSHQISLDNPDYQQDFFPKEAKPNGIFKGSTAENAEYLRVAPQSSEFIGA

Compound	IC50 (EGFR; [1])	IC50 (PDGFR; [2])	IC50 (Her2; Table 5)	IC50 (EGFR; [3])	IC50 (PDGFR; [4])	IC50 (Her2; Table 4)	further results
CC(C)(C)c1cc(CC2C(=O)Nc3ccc(Cl)cc32)cc(Br)c1O (racemic) [AAI-28, 3-(3-Bromo-5-tert-butyl-4-hydroxybenzyl)-5-chloro-1,3-dihydroindol-2-one]	> 100 µM	> 100 µM	48 µM				
COc1ccc2c(c1)NC(=O)C2Cc1ccc(OC)c(-c2ccsc2)c1 (stereo not drawn) [AAI-1, 6-Methoxy-3-(4-methoxy-3-thiophen-3-ylbenzyl)-1,3-dihydroindol-2-one]	> 100 µM	> 100 µM	> 100 µM				
O=C(Nc1ccc2c(c1)NC(=O)C2Cc1cc(Cl)cc(Cl)c1O)C1CCCC1 (stereo not drawn) [AAI-2, Cyclopentanecarboxylic Acid [3-(3,5-Dichloro-2-hydroxybenzyl)-2-oxo-2,3-dihydro-1H-indol-6-yl]-amide]	> 100 µM	> 100 µM	50.5 µM				
O=C(Nc1ccc2c(c1)NC(=O)C2Cc1cc(Cl)ccc1O)C1CCCC1 (stereo not drawn) [AAI-3, Cyclopentanecarboxylic Acid [3-(5-Chloro-2-hydroxybenzyl)-2-oxo-2,3-dihydro-1H-indol-6-yl]-amide]	> 100 µM	> 100 µM	> 100 µM				
COc1ccc(-c2cc(CC3C(=O)Nc4ccccc43)c(O)cc2OC)cc1 (stereo not drawn) [AAI-4, 3-(4-Hydroxy-6,4′-dimethoxybiphenyl-3-ylmethyl)-1,3-dihydroindol-2-one]	> 100 µM	> 100 µM	> 100 µM				
O=C1Nc2cccc(CCO)c2C1Cc1ccc(Br)cc1 (stereo not drawn) [AAI-14, 3-(4-Bromobenzyl)-4-(2-hydroxyethyl)-1,3-dihydroindol-2-one]	> 100 µM	> 100 µM	> 100 µM				
CC(C)c1cc(CC2C(=O)Nc3ccc(Cl)cc32)cc(C(C)C)c1OCCN1CCOCC1 (stereo not drawn) [AAI-15, 5-Chloro-3-[3,5-diisopropyl-4-(2-morpholin-4-ylethoxy)-benzyl]-1,3-dihydroindol-2-one]	> 100 µM	> 100 µM	> 100 µM				
Cc1[nH]c(CC2C(=O)Nc3ccc(Br)cc32)c(C)c1CCCN(C)C (stereo not drawn) [AAI-19, 5-Bromo-3-[4-(3-dimethylaminopropyl)-3,5-dimethyl-1H-pyrrol-2-ylmethyl]-1,3-dihydroindol-2-one]	> 100 µM	0.25 µM	> 100 µM				
O=C1Nc2cc(-c3ccccc3)ccc2C1Cc1cc(Br)ccc1O (stereo not drawn) [AAI-26, 3-(5-Bromo-2-hydroxybenzyl)-6-phenyl-1,3-dihydroindol-2-one]	> 100 µM	> 100 µM	67.6 µM				
COCCc1cccc2c1CC(=O)N2 [IN-018, 4-(2-Methoxy-ethyl)-1,3-dihydro-indol-2-one]							IC50 (EGFR; [5]): > 100 µM; IC50 (Her2; Table 7): > 100 µM
CCOCCc1cccc2c1CC(=O)N2 [IN-019, 4-(2-Ethoxy-ethyl)-1,3-dihydro-indol-2-one]							IC50 (EGFR; [5]): > 100 µM; IC50 (Her2; Table 7): > 100 µM
O=C1Cc2c(CCOc3cncc(Cl)c3)cccc2N1 [IN-021, 4-[2-(5-Chloro-pyridin-3-yloxy)-ethyl]1,3-dihydro-indol-2-one]							IC50 (EGFR; [5]): > 100 µM; IC50 (Her2; Table 7): > 100 µM
CC(C)NC(=O)OCCc1cccc2c1CC(=O)N2 [IN-025, Isopropyl-carbamic acid 2-(2-oxo-2,3-dihydro-1H-indol-4-yl)-ethyl ester]							IC50 (EGFR; [5]): > 100 µM; IC50 (PDGFR; Table 7, in vitro kinase activity, read-out: PDGFr biochem IC50): 70.8 µM; IC50 (Her2; Table 7): 3.9 µM

Further lines, with some results ahead:

IC50 (EGFR; [1])	IC50 (PDGFR; [2])	IC50 (Her2; Table 5)	IC50 (EGFR; [3])	IC50 (PDGFR; [4])	IC50 (Her2; Table 4)	Compound	further results
			> 100 µM	> 100 µM	> 100 µM	COc1ccc(C=C2C(=O)Nc3cc(-c4cccnc4)ccc32)cc1-c1cccs1 [AHI-1, 3-(4-Methoxy-3-thiophen-2-yl-benzylidene)-6-pyridin-3-yl-1,3-dihydroindol-2-one]	
			> 100 µM	49.9 µM	31.5 µM	O=C1Nc2cc(-c3cccnc3)ccc2C1=Cc1ccccc1O [AHI-2, 3-(2-Hydroxybenzylidene)-6-pyridin-3-yl-1,3-dihydroindol-2-one]	
			> 100 µM	> 100 µM	> 100 µM	COc1ccc(C=C2C(=O)Nc3cc(-c4cccs4)ccc32)cc1-c1cccs1 [AHI-3, 3-(4-Methoxy-3-thiophen-2-yl-benzylidene)-6-thiophen-2-yl-1,3-dihydroindol-2-one]	
			> 100 µM	> 100 µM	> 100 µM	O=C1Nc2cc(-c3cccs3)ccc2C1=Cc1ccccc1O [AHI-4, 3-(2-Hydroxybenzylidene)-6-thiophen-2-yl-1,3-dihydroindol-2-one]	
			> 100 µM	> 100 µM	> 100 µM	COc1ccc(C=C2C(=O)Nc3cc(-c4ccsc4)ccc32)cc1-c1cccs1 [AHI-5, 3-(4-Methoxy-3-thiophen-2-yl-benzylidene)-6-thiophen-3-yl-1,3-dihydroindol-2-one]	
			> 100 µM	76.6 µM	57.3 µM	O=C1Nc2cc(-c3ccsc3)ccc2C1=Cc1ccccc1O [AHI-6, 3-(2-Hydroxybenzylidene)-6-thiophen-3-yl-1,3-dihydroindol-2-one]	
			12.1 µM	0.02 µM	16.8 µM	Cc1[nH]c(C=C2C(=O)Nc3cc(-c4cccnc4)ccc32)c(C)c1CCCN(C)C [AHI-7, 3-[4-(3-Dimethylaminopropyl)-3,5-dimethyl-1H-pyrrol-2-ylmethylene]-6-pyridin-3-yl-1,3-dihydroindol-2-one]	
			> 100 µM	0.52 µM	71 µM	Cc1[nH]c(C=C2C(=O)Nc3cc(-c4cccs4)ccc32)c(C)c1CCCN(C)C [AHI-8, 3-[4-(3-Dimethylaminopropyl)-3,5-dimethyl-1H-pyrrol-2-ylmethylene]-6-thiophen-2-yl-1,3-dihydroindol-2-one]	

Source: patent publication US6689806B1, “Indolinone compounds as kinase inhibitors” (Sugen, Inc., priority 1999, dated 2004)
